{"source": "patent US4096052A", "about": "“Electrochemical hydroxylation of certain aromatic compounds” (priority 1977, dated 1978)", "origin": "cited, not measured here", "key": {"[1]": {"conditions": "Table II (comparison acids), H2O, 25° C"}}, "note": "Where two headings read alike, the source gives them in different places."}
{"smiles": "O=C(O)CBr", "note": "[bromoacetic]", "values": [{"measurement": "Ka (H2 O) at 25° C", "setting": "Table I, H2O, 25° C", "result": "2.05 × 10^-3"}]}
{"smiles": "O=C(O)CCl", "note": "[chloroacetic, chloroacetic acid]", "values": [{"measurement": "Ka (H2 O) at 25° C", "setting": "Table I, H2O, 25° C", "result": "1.4 × 10^-3"}]}
{"smiles": "N#CCC(=O)O", "note": "[cyanoacetic, cyanoacetic acid]", "values": [{"measurement": "Ka (H2 O) at 25° C", "setting": "Table I, H2O, 25° C", "result": "3.65 × 10^-3"}, {"measurement": "pKa (H2 O) at 25° C", "setting": "water", "result": 2.41}]}
{"smiles": "O=C(O)C(Cl)Cl", "note": "[dichloroacetic]", "values": [{"measurement": "Ka (H2 O) at 25° C", "setting": "Table I, H2O, 25° C", "result": "3.32 × 10^-2"}]}
{"smiles": "CCCCC(=O)O", "note": "[n-valeric]", "values": [{"measurement": "Ka (H2 O) at 25° C", "setting": "[1]", "result": "1.5 × 10^-5"}]}
{"smiles": "O=C(O)c1ccccc1[N+](=O)[O-]", "note": "[o-nitrobenzoic, o-nitrobenzoic acid]", "values": [{"measurement": "Ka (H2 O)", "setting": "Table I, H2O, 18° C", "result": "6.95 × 10^-3"}, {"measurement": "pKa (H2 O)", "setting": "water", "result": 2.16}]}
{"smiles": "O=C(O)Cc1ccccc1", "note": "[phenylacetic]", "values": [{"measurement": "Ka (H2 O)", "setting": "Table II, H2O, 18° C", "result": 5.2}, {"measurement": "pKa (H2 O)", "setting": "Table II, H2O, 18° C", "result": 4.28}]}
{"smiles": "CCC(=O)O", "note": "[propionic]", "values": [{"measurement": "Ka (H2 O) at 25° C", "setting": "[1]", "result": "1.34 × 10^-5"}]}
{"smiles": "O=C(O)C(Cl)(Cl)Cl", "note": "[trichloroacetic, trichloroacetic acid]", "values": [{"measurement": "Ka (H2 O) at 25° C", "setting": "Table I, H2O, 25° C", "result": "2 × 10^-1"}, {"measurement": "pKa (H2 O) at 25° C", "setting": "Table I, H2O, 25° C", "result": 0.70}]}
{"smiles": "O=C(O)C(F)(F)F", "note": "[trifluoroacetic, trifluoroacetic acid]", "values": [{"measurement": "dissociation in aqueous solution (Table I footnote in place of Ka)", "setting": "Table I footnote, H2O, 25° C", "result": "completely dissociated in aqueous solution"}, {"measurement": "pKa (H2 O) at 25° C", "setting": "Table I, H2O, 25° C", "result": 0}]}
{"smiles": "C=CCC(=O)O", "note": "[vinylacetic]", "values": [{"measurement": "pKa (H2 O) at 25° C", "setting": "water", "result": 4.34}]}
{"smiles": "CCC(Cl)C(=O)O", "note": "(stereo not drawn) [α-chlorobutyric]", "values": [{"measurement": "Ka (H2 O) at 25° C", "setting": "Table I, H2O, 25° C", "result": "1.39 × 10^-3"}, {"measurement": "pKa (H2 O) at 25° C", "setting": "Table I, H2O, 25° C", "result": 2.86}]}
{"smiles": "CC(Cl)C(=O)O", "note": "(stereo not drawn) [α-chloropropionic]", "values": [{"measurement": "Ka (H2 O) at 25° C", "setting": "Table I, H2O, 25° C", "result": "1.47 × 10^-3"}, {"measurement": "pKa (H2 O) at 25° C", "setting": "Table I, H2O, 25° C", "result": 2.83}]}
{"smiles": "CC(Cl)CC(=O)O", "note": "(stereo not drawn) [β-chlorobutyric]", "values": [{"measurement": "Ka (H2 O) at 25° C", "setting": "[1]", "result": "8.9 × 10^-5"}, {"measurement": "pKa (H2 O) at 25° C", "setting": "[1]", "result": 4.05}]}
{"smiles": "O=C(O)CCCl", "note": "[β-chloropropionic]", "values": [{"measurement": "Ka (H2 O) at 25° C", "setting": "[1]", "result": "1.04 × 10^-4"}, {"measurement": "pKa (H2 O) at 25° C", "setting": "[1]", "result": 3.98}]}
